We go through 67 compounds from the C3SDB collision cross section collection.

For the data set the following is noted: [M+H]+; instrument: TW.
`CC(C)(C)[C@H](O)[C@H](Cc1ccc(Cl)cc1)n1cncn1` (racemic) [Paclobutrazol]: the “collision cross section (N2)” value is on record as 168.73 Å².

Take `O=C\1\C=C/[C@]3(/C(=C/1)CC[C@H]4[C@@H]2CCC(=O)[C@]2(CC[C@H]34)C)C` [1,4-androstadiene-3,17-dione]: the “collision cross section (N2)” value stood at 166.5 Å².

For the compound `C[C@]12Cc3cn[nH]c3C[C@@H]1CC[C@@H]1[C@@H]2CC[C@@]2(C)[C@H]1C[C@H](O)[C@]2(C)O` [16B-hydroxystanozolol], the “collision cross section (N2)” value came to 192.1 Å².

For the compound `C[C@]12CCC(=O)C=C1CC[C@@H]1[C@@H]2CC[C@@]2(C)[C@H]1CC[C@]2(C)O` [17a-Methyltestosterone], the “collision cross section (N2)” value is reported as 173.7 Å².

On to `C/C(=N\C#N)N(C)Cc1ccc(Cl)nc1` [Acetamiprid], for which the “collision cross section (N2)” value is 150.24 Å².

`CC(=O)c1ccc2c(c1)N(CCCN(C)C)c1ccccc1S2` [Acetopromazine]: the “collision cross section (N2)” value turned out to be 160.5 Å².

`C[C@H]1C[C@H]2[C@@H]3CCC4=CC(=O)C=C[C@]4(C)[C@@]3(Cl)[C@@H](O)C[C@]2(C)[C@@]1(O)C(=O)CO` [Beclomethasone]: the “collision cross section (N2)” value is on record as 189.2 Å².

As for `CC(C)N1C(=O)N(c2ccccc2)CS/C1=N\C(C)(C)C` [Buprofezin], the “collision cross section (N2)” value was 173.58 Å².

On to `CC1=C(C(=O)Nc2ccccc2)SCCO1` [Carboxin], for which the “collision cross section (N2)” value turned out to be 149.35 Å².

`CC(C(=O)O)c1ccc2c(c1)[nH]c1ccc(Cl)cc12` (configuration not stated) [Carprofen]: the “collision cross section (N2)” value worked out at 156.1 Å².

With `Nc1cnn(-c2ccccc2)c(=O)c1Cl` [Chloridazon], the “collision cross section (N2)” value turned out to be 141.59 Å².

Turning to `CN(C)C(=O)Nc1ccc(Oc2ccc(Cl)cc2)cc1` [Chloroxuron], the “collision cross section (N2)” value is 172.24 Å².

In the case of `CN(C)CCCN1c2ccccc2Sc2ccc(Cl)cc21` [Chlorpromazine], the “collision cross section (N2)” value worked out at 169.1 Å².

On to `CN(C)[C@@H]1C(O)=C(C(=N)O)C(=O)[C@@]2(O)C(O)=C3C(=O)c4c(O)ccc(Cl)c4[C@@](C)(O)[C@H]3C[C@@H]12` [Chlortetracycline], for which the “collision cross section (N2)” value turned out to be 203.9 Å².

For the compound `Cc1ccc(/N=C(/O)N(C)C)cc1Cl` [Chlortoluron], the “collision cross section (N2)” value amounted to 145.96 Å².

For `CC(C)(C)NCC(O)c1cc(Cl)c(N)c(Cl)c1` (configuration not stated) [Clenbuterol], the “collision cross section (N2)” value amounted to 159.2 Å².

As for `Cc1ccc(-c2c(Cl)nc(C#N)n2S(=O)(=O)N(C)C)cc1` [Cyazofamid], the “collision cross section (N2)” value was determined as 166.69 Å².

In the case of `CCN(CC)C(=O)c1cccc(C)c1` [DEET], the “collision cross section (N2)” value is 142.48 Å².

Turning to `COc1ccc(/C(=C/C(=O)N2CCOCC2)c2ccc(Cl)cc2)cc1OC` [Dimethomorph I], the “collision cross section (N2)” value was 199.03 Å².

Regarding `CCCCc1c(C)nc(NCC)[nH]c1=O` [Ethirimol], the “collision cross section (N2)” value is on record as 150.65 Å².

For the compound `CCCSP(=O)(OCC)SCCC` [Ethoprophos], the “collision cross section (N2)” value was found to be 149.27 Å².

On to `N#CC(CCc1ccc(Cl)cc1)(Cn1cncn1)c1ccccc1` (configuration not stated) [Fenbuconazole], for which the “collision cross section (N2)” value worked out at 182.44 Å².

With `Cc1nn(C)c(Oc2ccccc2)c1/C=N/OCc1ccc(C(=O)OC(C)(C)C)cc1` [Fenpyroximate], the “collision cross section (N2)” value amounted to 215.89 Å².

For `N#Cc1nn(-c2c(Cl)cc(C(F)(F)F)cc2Cl)c(N)c1S(=O)C(F)(F)F` (configuration not stated) [Fipronil], the “collision cross section (N2)” value was found to be 180.77 Å².

For the compound `CC1(C)OC(=O)C(OCC2CC2)=C1c1ccc(S(C)(=O)=O)cc1` [Firocoxib], the “collision cross section (N2)” value is given as 182.1 Å².

With `Nc1c(Cl)c(F)nc(OCC(=O)O)c1Cl` [Fluroxypyr], the “collision cross section (N2)” value came out at 140.69 Å².

Regarding `CCCCOC(=O)N(C)SN(C)C(=O)Oc1cccc2c1OC(C)(C)C2` [Furathiocarb], the “collision cross section (N2)” value stood at 190.73 Å².

In the case of `O=C(CCCN1CCC(O)(c2ccc(Cl)cc2)CC1)c1ccc(F)cc1` [Haloperidol], the “collision cross section (N2)” value was 193.9 Å².

For `CC1C(c2ccc(Cl)cc2)SC(=O)N1C(=O)NC1CCCCC1` (configuration not stated) [Hexythiazox], the “collision cross section (N2)” value is recorded as 183.83 Å².

On to `O=[N+]([O-])c1cnc(CO)n1CCO` [Hydroxymetronidazole], for which the “collision cross section (N2)” value was found to be 128.2 Å².

Take `C=CCOC(Cn1ccnc1)c1ccc(Cl)cc1Cl` (configuration not stated) [Imazalil]: the “collision cross section (N2)” value worked out at 164.99 Å².

For the compound `O=[N+]([O-])/N=C1\NCCN1Cc1ccc(Cl)nc1` [Imidacloprid], the “collision cross section (N2)” value is recorded as 149.62 Å².

As for `CO[C@@H]1[C@@H](O[C@@H]2O[C@H](C)[C@@H](O[C@H]3C[C@@](C)(O)[C@@H](OC(=O)CC(C)C)[C@H](C)O3)[C@H](N(C)C)[C@H]2O)[C@@H](CC=O)C[C@@H](C)[C@@H](O)/C=C/C=C/C[C@@H](C)OC(=O)C[C@H]1OC(C)=O` [Josamycin], the “collision cross section (N2)” value is reported as 306.8 Å².

Take `CN1CCN(c2c(F)cc3c(=O)c(C(=O)O)cn4c3c2OCN4C)CC1` [Marbofloxacin]: the “collision cross section (N2)” value is reported as 179.6 Å².

For `Cc1cccc(Nc2ccccc2C(=O)O)c1C` [Mefenamic acid], the “collision cross section (N2)” value is reported as 150.5 Å².

For `Cc1nnc(-c2ccccc2)c(=O)n1N` [Metamitron], the “collision cross section (N2)” value is 140.93 Å².

As to `CNC(=O)N(C)c1nc2ccccc2s1` [Methabenzthiazuron], the “collision cross section (N2)” value is recorded as 142.47 Å².

`CON(C)C(=O)Nc1ccc(Br)cc1` [Metobromuron]: the “collision cross section (N2)” value came out at 145.41 Å².

As to `Cc1ncc([N+](=O)[O-])n1CCO` [Metronidazole], the “collision cross section (N2)” value was found to be 124.2 Å².

Take `O=C(O)\C2=C\N(c1cc(c(F)cc1C2=O)N3CCNCC3)CC` [Norfloxacine]: the “collision cross section (N2)” value stood at 171 Å².

Regarding `O=C(NC(=O)c1c(F)cccc1F)Nc1ccc(OC(F)(F)C(F)OC(F)(F)F)c(Cl)c1` (configuration not stated) [Novaluron], the “collision cross section (N2)” value is recorded as 196.35 Å².

`C/N=C(/O)CSP(=O)(OC)OC` [Omethoate]: the “collision cross section (N2)” value is 134.62 Å².

Consider `CCOP(=O)(OCC)Oc1ccc([N+](=O)[O-])cc1` [Paraoxon-ethyl], for which the “collision cross section (N2)” value is listed as 156.76 Å².

Regarding `O=C(Nc1ccccc1)N(Cc1ccc(Cl)cc1)C1CCCC1` [Pencycuron], the “collision cross section (N2)” value turned out to be 179.71 Å².

Turning to `Cc1nc(N(C)C)nc(OC(=O)N(C)C)c1C` [Pirimicarb], the “collision cross section (N2)” value came out at 154.68 Å².

In the case of `CN1C(/C(O)=N/c2ccccn2)=C(O)c2ccccc2S1(=O)=O` [Piroxicam], the “collision cross section (N2)” value stood at 170.9 Å².

As for `O=C2\C(=C(/N(N2c1ccccc1)C)C)C(C)C` [Propyphenazone], the “collision cross section (N2)” value came out at 150 Å².

`CCCN(CCC)C(=O)SCc1ccccc1` [Prosulfocarb]: the “collision cross section (N2)” value was determined as 156.95 Å².

`COc1nc(C)nc(NC(=O)NS(=O)(=O)c2ccccc2CCC(F)(F)F)n1` [Prosulfuron]: the “collision cross section (N2)” value was 187.01 Å².

Take `COC(=O)N(OC)c1ccccc1COc1ccn(-c2ccc(Cl)cc2)n1` [Pyraclostrobin]: the “collision cross section (N2)” value is reported as 183.19 Å².

Regarding `CN1CCCN=C1/C=C/c1cccs1` [Pyrantel], the “collision cross section (N2)” value is 143 Å².

As for `CC(COc1ccc(Oc2ccccc2)cc1)Oc1ccccn1` (configuration not stated) [Pyriproxifen], the “collision cross section (N2)” value was found to be 182.76 Å².

As for `C=C1C[C@@]23CC[C@H]4[C@@](C)(CCC[C@@]4(C)C(=O)O[C@@H]4O[C@H](CO)[C@@H](O)[C@H](O)[C@H]4O)[C@@H]2CC[C@]1(O[C@@H]1O[C@H](CO)[C@@H](O)[C@H](O[C@@H]2O[C@H](CO)[C@@H](O)[C@H](O)[C@H]2O)[C@H]1O[C@@H]1O[C@H](CO)[C@@H](O)[C@H](O)[C@H]1O)C3` [Rebaudioside A], the “collision cross section (N2)” value is 299.48 Å².

With `Fc1ccc(cc1)N\3c2cc(c(F)cc2C(=O)C(/C(=O)O)=C/3)N4CCNCC4` [Sarafloxacine], the “collision cross section (N2)” value was 202 Å².

For the compound `CCNc1nc(Cl)nc(NCC)n1` [Simazine], the “collision cross section (N2)” value amounted to 142.09 Å².

Consider `C[C@]12Cc3cn[nH]c3C[C@@H]1CC[C@@H]1[C@@H]2CC[C@@]2(C)[C@H]1CC[C@]2(C)O` [Stanozolol], for which the “collision cross section (N2)” value worked out at 185.2 Å².

Take `C=C1C[C@@]23CC[C@H]4[C@@](C)(CCC[C@@]4(C)C(=O)O)[C@@H]2CC[C@]1(O[C@@H]1O[C@H](CO)[C@@H](O)[C@H](O)[C@H]1O[C@@H]1O[C@H](CO)[C@@H](O)[C@H](O)[C@H]1O)C3` [Steviolbioside]: the “collision cross section (N2)” value was found to be 235.78 Å².

Consider `Cc1ccnc(NS(=O)(=O)c2ccc(N)cc2)n1` [Sulfamerazine], for which the “collision cross section (N2)” value is reported as 154.8 Å².

As for `Cc1cc(NS(=O)(=O)c2ccc(N)cc2)no1` [Sulfamethoxazole], the “collision cross section (N2)” value came to 146.3 Å².

`Nc1ccc(S(=O)(=O)Nc2ccccn2)cc1` [Sulfapyridine]: the “collision cross section (N2)” value is given as 142.3 Å².

Turning to `Nc1ccc(S(=O)(=O)Nc2cnc3ccccc3n2)cc1` [Sulfaquinoxaline], the “collision cross section (N2)” value was found to be 164.8 Å².

Consider `O=C(NC(=O)c1c(F)cccc1F)Nc1cc(Cl)c(F)c(Cl)c1F` [Teflubenzuron], for which the “collision cross section (N2)” value was 171.81 Å².

On to `CC/C(=N\OC/C=C/Cl)C1=C(O)CC(C2CCOCC2)CC1=O` (configuration not stated) [Tepraloxydim], for which the “collision cross section (N2)” value is 184.74 Å².

Turning to `FC(F)C(F)(F)OCC(Cn1cncn1)c1ccc(Cl)cc1Cl` (configuration not stated) [Tetraconazole], the “collision cross section (N2)” value turned out to be 174.34 Å².

In the case of `C=C[C@]1(C)C[C@@H](OC(=O)CSCCN(CC)CC)C2(C)C(C)CC[C@]3(CCC(=O)[C@@H]23)[C@@H](C)[C@@H]1O` (some centres not stated) [Tiamulin], the “collision cross section (N2)” value amounted to 218.9 Å².

Regarding `CCOC(=O)C1CC(=O)C(=C(O)C2CC2)C(=O)C1` (configuration not stated) [Trinexapac-ethyl], the “collision cross section (N2)” value amounted to 152.92 Å².

For `C=C[C@]1(C)C[C@@H](OC(=O)CSC(C)(C)CNC(=O)[C@H](N)C(C)C)[C@]2(C)[C@H](C)CC[C@]3(CCC(=O)[C@H]32)[C@@H](C)[C@@H]1O` [Valnemulin], the “collision cross section (N2)” value is 233.3 Å².
